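Cultured in 96-well plates, cells were exposed to test compound for 48 hours across five concentrations. GI50 = concentration required for 50% inhibition of growth. Definition used: TGI = concentration required for complete inhibition of growth.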
Columns and labels:
Test in all cases: NCI anticancer screen, dose series, 48 h
[1] = system: UO-31 renal
[2] = system: MDA-MB-231 breast
[3] = system: HOP-92 NSCLC
[4] = system: HT29 colon
[5] = system: NCI/ADR-RES ovarian
[6] = system: SR leukemia
[7] = system: M14 melanoma
[8] = system: NCI-H23 lung
[9] = system: MOLT-4 leukemia
[10] = system: A549 NSCLC
[11] = system: COLO 205 colon
[12] = system: DU-145 prostate
[13] = system: UACC-62 melanoma
[14] = system: SF-268 CNS
[15] = system: LOX IMVI melanoma
[16] = system: MALME-3M melanoma
[17] = system: BT-549 breast
[18] = system: EKVX NSCLC
[19] = system: SN12C renal
[20] = system: HL-60(TB) leukemia
[21] = system: HCT-15 colon
[22] = system: PC-3 prostate
[23] = system: SK-OV-3 ovarian
[24] = system: ACHN renal
[25] = system: RPMI-8226 leukemia
[26] = system: SF-539 CNS
[27] = system: OVCAR-4 ovarian
[28] = system: SK-MEL-2 melanoma
[29] = system: SW-620 colon
[30] = system: A498 renal
[31] = system: HCC-2998 colon
[32] = system: U251 CNS
[33] = system: HS 578T breast
[34] = system: NCI-H460 lung
[35] = system: MCF7 breast
[36] = system: OVCAR-3 ovarian
[37] = system: SK-MEL-5 melanoma
[38] = system: SNB-75 CNS
[39] = system: T-47D breast
[40] = system: SNB-19 CNS
[41] = system: RXF 393 renal
[42] = system: CCRF-CEM leukemia
[43] = system: IGROV1 ovarian
[44] = system: MDA-MB-435
[45] = system: SF-295 CNS
[46] = system: TK-10 renal
[47] = system: HOP-62 NSCLC
[48] = system: CAKI-1 renal
[49] = system: K-562 leukemia
[50] = system: OVCAR-8 ovarian
[51] = system: SK-MEL-28 melanoma
[52] = system: KM12 colon
[53] = system: UACC-257 melanoma
[54] = system: HCT-116 colon
[55] = system: 786-0 renal
[56] = system: NCI-H226 lung
[57] = system: NCI-H522 lung
[58] = system: OVCAR-5 ovarian

O=C(C=C=Nc1ccccc1)C(=O)N=C=Cc1ccccc1
GI50 [1]: 1.63 µM
TGI [1]: 3.82 µM
GI50 [2]: 3.15 µM
TGI [2]: 10.4 µM
GI50 [3]: 5.57 µM
TGI [3]: 20.1 µM
GI50 [4]: 1.89 µM
TGI [4]: 4.74 µM
GI50 [5]: 2.95 µM
TGI [5]: 14.7 µM
GI50 [6]: 0.298 µM
TGI [6]: > 100 µM
GI50 [7]: 2.16 µM
TGI [7]: 6.46 µM
GI50 [8]: 4.55 µM
TGI [8]: 19.5 µM
GI50 [9]: 1.14 µM
TGI [9]: 5.8 µM
GI50 [10]: 6.74 µM
TGI [10]: 22.9 µM
GI50 [11]: 1.89 µM
TGI [11]: 3.87 µM
GI50 [12]: 2.24 µM
TGI [12]: 6.82 µM
GI50 [13]: 4.26 µM
TGI [13]: 12.6 µM
GI50 [14]: 3.43 µM
TGI [14]: 12.1 µM
GI50 [15]: 1.93 µM
TGI [15]: 4.48 µM
GI50 [16]: 1.54 µM
TGI [16]: 5.33 µM
GI50 [17]: 2.59 µM
TGI [17]: 9.2 µM
GI50 [18]: 6.81 µM
TGI [18]: 22.8 µM
GI50 [19]: 4.71 µM
TGI [19]: 19.4 µM
GI50 [20]: 1.7 µM
TGI [20]: 6.98 µM
GI50 [21]: 1.42 µM
TGI [21]: 4.05 µM
GI50 [22]: 2.89 µM
TGI [22]: 8.91 µM
GI50 [23]: 20.3 µM
TGI [23]: 68 µM
GI50 [24]: 1.76 µM
TGI [24]: 4.6 µM
GI50 [25]: 0.534 µM
TGI [25]: 2.29 µM
GI50 [26]: 9.39 µM
TGI [26]: 23 µM
GI50 [27]: 2.15 µM
TGI [27]: 6.41 µM
GI50 [28]: 1.49 µM
TGI [28]: 8.36 µM
GI50 [29]: 1.72 µM
TGI [29]: 3.61 µM
GI50 [30]: 16 µM
TGI [30]: 34 µM
GI50 [31]: 4.04 µM
TGI [31]: 9.49 µM
GI50 [32]: 5.27 µM
TGI [32]: 17.3 µM
GI50 [33]: 2.26 µM
TGI [33]: 7.31 µM
GI50 [34]: 14.1 µM
TGI [34]: 44.1 µM
GI50 [35]: 2.35 µM
TGI [35]: 12.6 µM
GI50 [36]: 1.48 µM
TGI [36]: 2.97 µM
GI50 [37]: 5.16 µM
TGI [37]: 17.7 µM
GI50 [38]: 3.54 µM
TGI [38]: 18.5 µM
GI50 [39]: 1.62 µM
TGI [39]: 3.94 µM
GI50 [40]: 31.6 µM
TGI [40]: > 60.7 µM
TGI [41]: 0.497 µM
GI50 [42]: 0.724 µM
TGI [42]: > 100 µM
GI50 [43]: 2.96 µM
TGI [43]: 12.3 µM
GI50 [44]: 2.33 µM
TGI [44]: 8 µM
GI50 [45]: 14.5 µM
TGI [45]: 40.9 µM
GI50 [46]: 2.52 µM
TGI [46]: 6.83 µM
GI50 [47]: 21.4 µM
TGI [47]: 52.6 µM
GI50 [48]: 1.73 µM
TGI [48]: 6.05 µM
GI50 [49]: 1.59 µM
GI50 [50]: 3.84 µM
TGI [50]: 14.4 µM
GI50 [51]: 1.88 µM
TGI [51]: 3.85 µM
GI50 [52]: 6.38 µM
TGI [52]: 19.1 µM
GI50 [53]: 2.38 µM
TGI [53]: 5.56 µM
GI50 [54]: 1.55 µM
TGI [54]: 3.84 µM
GI50 [55]: 1.75 µM
TGI [55]: 3.9 µM
GI50 [56]: 16.4 µM
TGI [56]: 59.8 µM
GI50 [57]: 1.81 µM
TGI [57]: 4.97 µM
GI50 [58]: 2.88 µM
TGI [58]: 11.8 µM

Source: PubChem BioAssay (NCI)
